Reference: the NIST ThermoML archive (doi:10.1016/j.jct.2010.02.010)
± gives the expanded uncertainty stated by the source.

Settings: for mass density: 101.33 kPa, Buoyancy - hydrostatic balance; for mass density / surface tension liquid-gas: Liquid; for surface tension liquid-gas: Maximal bubble pressure

Compound `CCCC[n+]1ccccc1.[O]=[Re](=[O])(=[O])[O-]` [1-butylpyridinium perrhenate] has a mass density (293.15 K) of 1910.1 ± 8.1 kg/m3, a surface tension liquid-gas (293.15 K) of 41.6 ± 0.6 mN/m and a mass density (298.15 K) of 1902.5 ± 8.1 kg/m3. It also gave a surface tension liquid-gas (298.15 K) of 41.2 ± 0.6 mN/m, a mass density (303.15 K) of 1894.9 ± 8 kg/m3 and a surface tension liquid-gas (303.15 K) of 40.7 ± 0.6 mN/m. It also gave a mass density (308.15 K) of 1886.9 ± 8 kg/m3, a surface tension liquid-gas (308.15 K) of 40.5 ± 0.6 mN/m and a mass density (313.15 K) of 1881.8 ± 8 kg/m3. The surface tension liquid-gas (313.15 K) was 40 ± 0.6 mN/m, the mass density (318.15 K) was 1877.6 ± 7.9 kg/m3 and the surface tension liquid-gas (318.15 K) was 39.7 ± 0.6 mN/m. The mass density (323.15 K) was 1869.2 ± 7.9 kg/m3, the surface tension liquid-gas (323.15 K) was 39.4 ± 0.6 mN/m and the mass density (328.15 K) was 1862.7 ± 7.9 kg/m3. It also gave a surface tension liquid-gas (328.15 K) of 39 ± 0.6 mN/m, a mass density (333.15 K) of 1856.9 ± 7.9 kg/m3 and a surface tension liquid-gas (333.15 K) of 38.6 ± 0.6 mN/m. The mass density (338.15 K) was 1853.2 ± 7.8 kg/m3, the surface tension liquid-gas (338.15 K) was 38.3 ± 0.6 mN/m and the mass density (343.15 K) was 1846.8 ± 7.8 kg/m3. It also gave a surface tension liquid-gas (343.15 K) of 38.2 ± 0.6 mN/m and a Glass transition temperature (Glass, DTA) of -66 ± 1 °C.
